Biological target: T1, OXR1 (endogenous, senescent WI38 cells) (Homo sapiens, UniProt Q8N573)
T1 construct: native protein of human WI38 fibroblasts (senescent)
T1 sequence (Q8N573 1-874): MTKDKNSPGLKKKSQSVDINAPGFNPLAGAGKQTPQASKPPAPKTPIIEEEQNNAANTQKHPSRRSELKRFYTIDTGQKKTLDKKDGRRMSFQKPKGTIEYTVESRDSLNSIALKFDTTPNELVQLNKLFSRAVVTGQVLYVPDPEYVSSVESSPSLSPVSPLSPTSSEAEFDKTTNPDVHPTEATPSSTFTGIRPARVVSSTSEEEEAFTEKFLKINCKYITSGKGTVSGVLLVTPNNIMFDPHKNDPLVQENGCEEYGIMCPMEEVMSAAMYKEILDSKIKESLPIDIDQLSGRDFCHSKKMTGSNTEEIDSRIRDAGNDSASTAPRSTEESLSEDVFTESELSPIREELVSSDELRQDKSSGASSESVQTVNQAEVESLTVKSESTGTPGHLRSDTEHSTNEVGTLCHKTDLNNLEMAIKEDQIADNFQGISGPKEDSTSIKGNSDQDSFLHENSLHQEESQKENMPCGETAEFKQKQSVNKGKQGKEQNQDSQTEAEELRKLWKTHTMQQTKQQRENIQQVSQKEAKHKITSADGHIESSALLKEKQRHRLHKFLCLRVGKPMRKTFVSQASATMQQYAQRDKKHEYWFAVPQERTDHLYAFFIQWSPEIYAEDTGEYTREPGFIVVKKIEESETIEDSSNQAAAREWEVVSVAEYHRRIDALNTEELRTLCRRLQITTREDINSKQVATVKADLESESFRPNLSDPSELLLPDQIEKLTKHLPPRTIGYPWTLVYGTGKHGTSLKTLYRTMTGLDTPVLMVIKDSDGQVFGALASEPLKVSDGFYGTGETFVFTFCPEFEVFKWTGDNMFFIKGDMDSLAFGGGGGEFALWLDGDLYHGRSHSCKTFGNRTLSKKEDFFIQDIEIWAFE
Assay: click-chemistry pull-down from live cells, LC-MS/MS
Assay type: cell-based
Details: labelled compound; 5 µM, 5 h; covalent

## C#CCCOc1c(OC)cc(/C=C/C(=O)N2CCC=CC2=O)cc1OC [PL probe, alkyne-labeled piperlongumine]
  click-chemistry pull-down from live cells, LC-MS/MS: OXR1 was on the top of the list of the PL‐binding proteins in SCs
